Laboratory results reported in patent US8119564B2, “Herbicidal control using sulfentrazone and metsulfuron” (FMC Corporation, priority 2009, dated 2012).

Tests used:
[1] = test system: field violet (Viola arvensis); experiment: Post-emergent herbicidal evaluation on turf plots, wild violet control; format: in vivo
Experimental: (§1) Test compositions containing sulfentrazone (Dismiss™ Turf Herbicide), metsulfuron methyl (BLADE™ Selective Herbicide For Turfgrass) and mixtures thereof, were diluted with water to provide the appropriate test rate concentrations.
(§2) The size of each experimental turf plot was 5 feet by 10 feet. The application of each test composition was performed with a pressurized back-pack sprayer, calibrated to spray 30 gallons per acre. Three replications were made for each test rate along with an untreated control plot.
(§3) Test weeds were about 3 inches tall at the time of treatment. Control of ground ivy (Glechoma hederacea) and field violet (Viola arvensis) was evaluated at 6, 14, 28, 40 and 55 days after treatment (DAT) for each test rate. In order t to provide a measure of the effectiveness of a herbicide's performance weed control ratings were based on visual observations of the presence or absence of various weeds or of symptoms (necrosis, wilting, curling of leaves, discoloration etc.) on weeds compared to lack of symptoms. Ratings are based on the 0 to 100 rating system, where 0 equals no control and 100 equals complete control, which generally makes use of direct-percentage figures. In this system the standard basis for comparison is an untreated weedy check. Counts are made of each weed species found in the untreated area of the study. This provides a basis to give a precise representation of both weed infestation and degree of control provided by various chemical treatments. Counts are made on randomly selected areas which are generally 1 square foot to 1 square yard in size. Ratings are made for each weed species found in the untreated treatments. For example, a random area in an untreated plot has 10 yellow nutsedge plants per square foot equaling 0% control. A treated plot has only 1 yellow nutsedge plant found in the randomly selected area equaling 90% control.
(§4) Compositions of the present invention were tested for herbicidal efficacy in the manner of Example 1. Table A below summarizes the test data for ratios of sulfentrazone to metsulfuron methyl that are outside the scope of the present invention. The Colby equation expected values are also in Table A.

[2] = test system: ground ivy (Glechoma hederacea); experiment: Post-emergent herbicidal evaluation on turf plots, ground ivy control; format: in vivo
Experimental: as §1, §2, §3, §4

[3] = 0.01 lb/ac, 6 DAT, NIS 0.25% V/V
[4] = 0.01 lb/ac, 14 DAT, NIS 0.25% V/V
[5] = 0.01 lb/ac, 28 DAT, NIS 0.25% V/V
[6] = 0.01 lb/ac, 40 DAT, NIS 0.25% V/V
[7] = 0.01 lb/ac, 55 DAT, NIS 0.25% V/V
[8] = 0.02 lb/ac, 6 DAT, NIS 0.25% V/V
[9] = 0.02 lb/ac, 14 DAT, NIS 0.25% V/V
[10] = 0.02 lb/ac, 28 DAT, NIS 0.25% V/V
[11] = 0.02 lb/ac, 40 DAT, NIS 0.25% V/V
[12] = 0.02 lb/ac, 55 DAT, NIS 0.25% V/V
[13] = 0.04 lb/ac, 6 DAT, NIS 0.25% V/V
[14] = 0.04 lb/ac, 14 DAT, NIS 0.25% V/V
[15] = 0.04 lb/ac, 28 DAT, NIS 0.25% V/V
[16] = 0.04 lb/ac, 40 DAT, NIS 0.25% V/V
[17] = 0.04 lb/ac, 55 DAT, NIS 0.25% V/V

COC(=O)c1ccccc1S(=O)(=O)NC(=O)Nc1nc(C)nc(OC)n1 [Metsulfuron Methyl, methyl 2-[[[[(4-methoxy-6-methyl-1,3,5-triazin-2-yl)amino]carbonyl]amino]sulfonyl]benzoate]
% Control of Weeds, Wild Violet Control [1, 3]: 0% | % Control of Weeds, Wild Violet Control [1, 4]: 0% | % Control of Weeds, Wild Violet Control [1, 5]: 58.3% | % Control of Weeds, Wild Violet Control [1, 6]: 63.3% | % Control of Weeds, Wild Violet Control [1, 7]: 66.7% | % Control of Weeds, Wild Violet Control [1, 8]: 0% | % Control of Weeds, Wild Violet Control [1, 9]: 3.3% | % Control of Weeds, Wild Violet Control [1, 10]: 50% | % Control of Weeds, Wild Violet Control [1, 11]: 75% | % Control of Weeds, Wild Violet Control [1, 12]: 86.7% | % Control of Weeds, Wild Violet Control [1, 13]: 0% | % Control of Weeds, Wild Violet Control [1, 14]: 0% | % Control of Weeds, Wild Violet Control [1, 15]: 51.7% | % Control of Weeds, Wild Violet Control [1, 16]: 66.7% | % Control of Weeds, Wild Violet Control [1, 17]: 66.7% | % Control of Weeds, Ground Ivy Control [2, 3]: 5% | % Control of Weeds, Ground Ivy Control [2, 4]: 33% | % Control of Weeds, Ground Ivy Control [2, 5]: 83% | % Control of Weeds, Ground Ivy Control [2, 6]: 96% | % Control of Weeds, Ground Ivy Control [2, 7]: 97% | % Control of Weeds, Ground Ivy Control [2, 8]: 0% | % Control of Weeds, Ground Ivy Control [2, 9]: 20% | % Control of Weeds, Ground Ivy Control [2, 10]: 75% | % Control of Weeds, Ground Ivy Control [2, 11]: 94% | % Control of Weeds, Ground Ivy Control [2, 12]: 100% | % Control of Weeds, Ground Ivy Control [2, 13]: 0% | % Control of Weeds, Ground Ivy Control [2, 14]: 36.7% | % Control of Weeds, Ground Ivy Control [2, 15]: 90% | % Control of Weeds, Ground Ivy Control [2, 16]: 97% | % Control of Weeds, Ground Ivy Control [2, 17]: 100%

Cc1nn(-c2cc(NS(C)(=O)=O)c(Cl)cc2Cl)c(=O)n1C(F)F [Sulfentrazone, N-[2,4-dichloro-5-[4-difluoromethyl-4,5-dihydro-3-methyl-5-oxo-1H-1,2,4-triazol-1-yl]phenyl]methanesulfonamide]
% Control of Weeds, Wild Violet Control ([1]; 0.125 lb/ac, 6 DAT): 5% | % Control of Weeds, Wild Violet Control ([1]; 0.125 lb/ac, 14 DAT): 0% | % Control of Weeds, Wild Violet Control ([1]; 0.125 lb/ac, 28 DAT): 0% | % Control of Weeds, Wild Violet Control ([1]; 0.125 lb/ac, 40 DAT): 0% | % Control of Weeds, Wild Violet Control ([1]; 0.125 lb/ac, 55 DAT): 0% | % Control of Weeds, Wild Violet Control ([1]; 0.25 lb/ac, 6 DAT): 5% | % Control of Weeds, Wild Violet Control ([1]; 0.25 lb/ac, 14 DAT): 0% | % Control of Weeds, Wild Violet Control ([1]; 0.25 lb/ac, 28 DAT): 0% | % Control of Weeds, Wild Violet Control ([1]; 0.25 lb/ac, 40 DAT): 0% | % Control of Weeds, Wild Violet Control ([1]; 0.25 lb/ac, 55 DAT): 0% | % Control of Weeds, Wild Violet Control ([1]; 0.38 lb/ac, 6 DAT): 1.7% | % Control of Weeds, Wild Violet Control ([1]; 0.38 lb/ac, 14 DAT): 0% | % Control of Weeds, Wild Violet Control ([1]; 0.38 lb/ac, 28 DAT): 10% | % Control of Weeds, Wild Violet Control ([1]; 0.38 lb/ac, 40 DAT): 0% | % Control of Weeds, Wild Violet Control ([1]; 0.38 lb/ac, 55 DAT): 23.3% | % Control of Weeds, Ground Ivy Control ([2]; 0.125 lb/ac, 6 DAT): 11.7% | % Control of Weeds, Ground Ivy Control ([2]; 0.125 lb/ac, 14 DAT): 10% | % Control of Weeds, Ground Ivy Control ([2]; 0.125 lb/ac, 28 DAT): 0% | % Control of Weeds, Ground Ivy Control ([2]; 0.125 lb/ac, 40 DAT): 0% | % Control of Weeds, Ground Ivy Control ([2]; 0.125 lb/ac, 55 DAT): 0% | % Control of Weeds, Ground Ivy Control ([2]; 0.25 lb/ac, 6 DAT): 10% | % Control of Weeds, Ground Ivy Control ([2]; 0.25 lb/ac, 14 DAT): 13.3% | % Control of Weeds, Ground Ivy Control ([2]; 0.25 lb/ac, 28 DAT): 0% | % Control of Weeds, Ground Ivy Control ([2]; 0.25 lb/ac, 40 DAT): 0% | % Control of Weeds, Ground Ivy Control ([2]; 0.25 lb/ac, 55 DAT): 0% | % Control of Weeds, Ground Ivy Control ([2]; 0.38 lb/ac, 6 DAT): 11.7% | % Control of Weeds, Ground Ivy Control ([2]; 0.38 lb/ac, 14 DAT): 6.7% | % Control of Weeds, Ground Ivy Control ([2]; 0.38 lb/ac, 28 DAT): 3.3% | % Control of Weeds, Ground Ivy Control ([2]; 0.38 lb/ac, 40 DAT): 0% | % Control of Weeds, Ground Ivy Control ([2]; 0.38 lb/ac, 55 DAT): 0%
